Measurements as given in patent US8735414B2 (priority 2009, dated 2014).
pIC50: −log10 of the molar value.

The compounds below were run on bicistronic HCV replicon (replicon RNA, GenBank Accession No. AJ242654) (assay: HCV Replicon Assay). Details: Hepatitis C virus, 72 h, read-out: Replicon IC50.
Type: cell-based

Compound	pIC50
Cc1cc2c(cc1F)c(C#N)c(-c1ccc(S(=O)(=O)NC(C)(C)C)cn1)n2-c1ncccn1 [compound 824, N-tert-butyl-6-[3-cyano-5-fluoro-6-methyl-1-(pyrimidin-2-yl)-1H-indol-2-yl]pyridine-3-sulfonamide]	> 6.30
CC(C)NS(=O)(=O)c1cnc(-c2c(C#N)c3ccc(CF)cc3n2C2CCC2)nc1 [compound 315, 2-[3-cyano-1-cyclobutyl-6-(fluoromethyl)-1H-indol-2-yl]-N-(propan-2-yl)pyrimidine-5-sulfonamide]	> 6.30
Cc1ccnc(-n2c(-c3ccc(S(=O)(=O)N[C@@H](C)C(F)(F)F)cn3)c(C#N)c3cc(F)c(C)cc32)n1 [compound 873, 6-[3-cyano-5-fluoro-6-methyl-1-(4-methylpyrimidin-2-yl)-1H-indol-2-yl]-N-[(2S)-1,1,1-trifluoropropan-2-yl]pyridine-3-sulfonamide]	> 6.30
C[C@H](NS(=O)(=O)c1ccc(-c2c(C(N)=O)c3cc(F)ccc3n2-c2ccccn2)nc1)C(F)(F)F [compound 748, 5-fluoro-1-(pyridin-2-yl)-2-(5-{[(2S)-1,1,1-trifluoropropan-2-yl]sulfamoyl}pyridin-2-yl)-1H-indole-3-carboxamide]	> 6.30
CCc1cc2c(cc1F)c(C#N)c(-c1ccc(S(=O)(=O)N[C@@H](C)C(F)(F)F)cn1)n2-c1ncccn1 [compound 704, 6-[3-cyano-6-ethyl-5-fluoro-1-(pyrimidin-2-yl)-1H-indol-2-yl]-N-[(2S)-1,1,1-trifluoropropan-2-yl]pyridine-3-sulfonamide]	> 6.30
COC(=O)c1c(-c2ncc(S(=O)(=O)N[C@@H](C)C(F)(F)F)cn2)n(C2CCC2)c2cc(C)c(F)cc12 [compound 774, methyl 1-cyclobutyl-5-fluoro-6-methyl-2-(5-{[(2S)-1,1,1-trifluoropropan-2-yl]sulfamoyl}pyrimidin-2-yl)-1H-indole-3-carboxylate]	> 6.30
Cc1cc2c(cc1F)c(C(=O)O)c(-c1ncc(S(=O)(=O)N[C@@H](C)C(F)(F)F)cn1)n2C1CCC1 [compound 775, 1-cyclobutyl-5-fluoro-6-methyl-2-(5-{[(2S)-1,1,1-trifluoropropan-2-yl]sulfamoyl}pyrimidin-2-yl)-1H-indole-3-carboxylic acid]	5.70 to 6.30
C[C@@H](NS(=O)(=O)c1ccc(-c2c(C#N)c3cc(F)c(OC(F)F)cc3n2-c2ccccn2)nc1)C(F)(F)F [compound 670, 6-[3-cyano-6-(difluoromethoxy)-5-fluoro-1-(pyridin-2-yl)-1H-indol-2-yl]-N-[(2R)-1,1,1-trifluoropropan-2-yl]pyridine-3-sulfonamide]	> 6.30
COC(=O)c1cnc(-n2c(-c3ccc(S(=O)(=O)N[C@@H](C)C(F)(F)F)cn3)c(C#N)c3cc(F)c(C)cc32)s1 [compound 985, methyl 2-[3-cyano-5-fluoro-6-methyl-2-(5-{[(2S)-1,1,1-trifluoropropan-2-yl]sulfamoyl}pyridin-2-yl)-1H-indol-1-yl]-1,3-thiazole-5-carboxylate]	> 6.30
Cc1cc2c(cc1F)cc(-c1ccc(S(=O)(=O)N[C@@H](C)C(F)(F)F)cn1)n2-c1cscn1 [compound 957, 6-[5-fluoro-6-methyl-1-(1,3-thiazol-4-yl)-1H-indol-2-yl]-N-[(2S)-1,1,1-trifluoropropan-2-yl]pyridine-3-sulfonamide]	5.70 to 6.30
C[C@H](NS(=O)(=O)c1ccc(-c2c(C#N)c3cc(F)ccc3n2C2CCC2)nc1)C(F)(F)F [compound 434, 6-(3-cyano-1-cyclobutyl-5-fluoro-1H-indol-2-yl)-N-[(2S)-1,1,1-trifluoropropan-2-yl]pyridine-3-sulfonamide]	> 6.30
NC(=O)c1c(-c2ccc(S(=O)(=O)NC(CF)CF)cn2)n(C2CCC2)c2cc(C3CC3)ccc12 [compound 582, 1-cyclobutyl-6-cyclopropyl-2-{5-[(1,3-difluoropropan-2-yl)sulfamoyl]pyridin-2-yl}-1H-indole-3-carboxamide]	> 6.30
C[C@H](NS(=O)(=O)c1ccc(-c2c(C#N)c3ccc(C4CC4)cc3n2-c2ncccn2)nc1)C(F)(F)F [compound 650, 6-[3-cyano-6-cyclopropyl-1-(pyrimidin-2-yl)-1H-indol-2-yl]-N-[(2S)-1,1,1-trifluoropropan-2-yl]pyridine-3-sulfonamide]	> 6.30
C[C@H](N(C(F)F)S(=O)(=O)c1ccc(-c2c(C#N)c3cc(F)c(OC(F)F)cc3n2C2CCC2)nc1)C(F)(F)F [compound 712, 6-[3-cyano-1-cyclobutyl-6-(difluoromethoxy)-5-fluoro-1H-indol-2-yl]-N-(difluoromethyl)-N-[(2S)-1,1,1-trifluoropropan-2-yl]pyridine-3-sulfonamide]	5.30 to 5.70
Cc1cc2c(cc1F)cc(-c1ccc(S(=O)(=O)N[C@@H](C)C(F)(F)F)cn1)n2-c1ncco1 [compound 1059, 6-[5-fluoro-6-methyl-1-(1,3-oxazol-2-yl)-1H-indol-2-yl]-N-[(2S)-1,1,1-trifluoropropan-2-yl]pyridine-3-sulfonamide]	> 6.30
CCc1cc2c(cc1F)c(C#N)c(-c1ccc(S(=O)(=O)NC(C)(C)C(F)(F)F)cn1)n2-c1ncccn1 [compound 859, 6-[3-cyano-6-ethyl-5-fluoro-1-(pyrimidin-2-yl)-1H-indol-2-yl]-N-(1,1,1-trifluoro-2-methylpropan-2-yl)pyridine-3-sulfonamide]	5.70 to 6.30
COc1ccc2c(C#N)c(-c3ccc(S(=O)(=O)NC4CC(F)(F)C4)cn3)n(C3CCCC3)c2c1 [compound 246, 6-(3-cyano-1-cyclopentyl-6-methoxy-1H-indol-2-yl)-N-(3,3-difluorocyclobutyl)pyridine-3-sulfonamide]	5.70 to 6.30
CCc1cc2c(cc1F)c(C#N)c(-c1ccc(S(=O)(=O)NC3(C(F)(F)F)CC3)cn1)n2-c1ncccn1 [compound 864, 6-[3-cyano-6-ethyl-5-fluoro-1-(pyrimidin-2-yl)-1H-indol-2-yl]-N-[1-(trifluoromethyl)cyclopropyl]pyridine-3-sulfonamide]	> 6.30
C[C@H](NS(=O)(=O)c1ccc(-c2c(C#N)c3ccc(OC(F)(F)F)cc3n2C2CCCCC2)nc1)C(F)(F)F [compound 459, 6-[3-cyano-1-cyclohexyl-6-(trifluoromethoxy)-1H-indol-2-yl]-N-[(2S)-1,1,1-trifluoropropan-2-yl]pyridine-3-sulfonamide]	> 6.30
C[C@H](NS(=O)(=O)c1ccc(-c2c(C#N)c3ccc(Cl)cc3n2C2CCCC2)nc1)C(F)(F)F [compound 364, 6-(6-chloro-3-cyano-1-cyclopentyl-1H-indol-2-yl)-N-[(2S)-1,1,1-trifluoropropan-2-yl]pyridine-3-sulfonamide]	> 6.30
CC(C)(C)NS(=O)(=O)c1ccc(-c2c(C#N)c3cc(F)ccc3n2-c2ncccn2)nc1 [compound 823, N-tert-butyl-6-[3-cyano-5-fluoro-1-(pyrimidin-2-yl)-1H-indol-2-yl]pyridine-3-sulfonamide]	5.70 to 6.30
Cc1cc2c(cc1F)c(C#N)c(-c1ccc(S(=O)(=O)N[C@@H](C)C(F)(F)F)cn1)n2C1CCOCC1 [compound 751, 6-[3-cyano-5-fluoro-6-methyl-1-(tetrahydro-2H-pyran-4-yl)-1H-indol-2-yl]-N-[(2S)-1,1,1-trifluoropropan-2-yl]pyridine-3-sulfonamide]	> 6.30
